Experimental data as given in patent US6949574B2 (Bristol-Myers Squibb Company, priority 2002, dated 2005).
Like-named read-outs stand apart in the source and are kept apart here.

Molecular target: T1, human FAAH (Homo sapiens, UniProt O00519)
T1 construct: expressed in transfected cells; host or cells: H4 cells (H4-FAAH, Geneticin-selected); crude membrane homogenates
T1 sequence (O00519 1-579): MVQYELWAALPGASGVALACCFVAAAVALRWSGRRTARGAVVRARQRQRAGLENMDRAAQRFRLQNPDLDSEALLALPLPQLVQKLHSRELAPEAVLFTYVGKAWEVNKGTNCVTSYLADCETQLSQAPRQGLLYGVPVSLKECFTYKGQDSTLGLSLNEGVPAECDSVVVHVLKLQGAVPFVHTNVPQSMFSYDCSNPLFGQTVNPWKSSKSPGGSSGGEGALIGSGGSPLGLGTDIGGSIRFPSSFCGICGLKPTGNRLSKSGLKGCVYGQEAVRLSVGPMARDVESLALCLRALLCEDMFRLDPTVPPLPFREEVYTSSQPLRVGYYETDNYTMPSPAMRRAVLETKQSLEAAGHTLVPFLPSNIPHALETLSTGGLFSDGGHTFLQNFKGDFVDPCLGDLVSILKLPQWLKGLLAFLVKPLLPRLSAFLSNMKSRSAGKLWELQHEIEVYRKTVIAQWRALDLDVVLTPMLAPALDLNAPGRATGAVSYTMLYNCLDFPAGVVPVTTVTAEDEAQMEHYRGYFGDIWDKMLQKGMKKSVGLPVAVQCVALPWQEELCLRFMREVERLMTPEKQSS
Experiment: FAAH activity in membrane homogenates of H4-FAAH cells, [3H]-anandamide hydrolysis
Type: biochemical
Protocol: Homogenates of crude membranes were prepared from H4 cells that express transfected human FAAH (H4-FAAH cells). Briefly, cells were grown in DMEM supplemented with 10% FBS and Geneticin at a final concentration of 500 μg/ml (Gibco BRL, Rockville, Md.). Confluent cultures of H4-FAAH cells were rinsed twice with phosphate-buffered saline [138 mM NaCl, 4.1 mM KCl, 5.1 mM Na2PO4, 1.5 mM KH2PO4 (pH 7.5), 37° C.] and incubated for 5 to 10 minutes at 4° C. in lysis buffer [1 mM sodium bicarbonate]. Cells were transferred from plates to polypropylene tubes (16×100 mm), homogenized and centrifuged at 32,000×g for 30 minutes. Pellets were resuspended by homogenization in lysis buffer and centrifuged at 32,000×g for 30 minutes. Pellets were resuspended in lysis buffer (15-20 μg protein/ml) then stored at −80° C. until needed. On the day of an experiment, membranes were diluted to 2.67 μg protein/ml in 125 mM Tris-Cl, pH 9.0.
Activity of FAAH was measured using a modification of the method described by Omeir et al., 1995 (Life Sci 56:1999, 1995). Membrane homogenates (240 ng protein) were incubated at room temperature for one hour with 1.67 nM anandamide [ethanolamine 1-^3H] (available from American Radiolabeled Chemical Inc., St Louis, Mo.) and 10 μM anandamide (available from Sigma/RBI, St. Louis, Mo.) in the absence and presence of inhibitors. The reaction was stopped by the addition of 1 volume of a solution of 1:1 methanol and dichloroethane. The mixture was shaken and then centrifuged at 1000×g for 15 minutes to separate the aqueous and organic phases. An aliquot of the aqueous phase, containing [^3H]-ethanolamine was withdrawn and counted by scintillation spectroscopy. Data were expressed as the percentage of [^3H]-ethanolamine formed versus vehicle, after subtraction of the background radioactivity determined in the presence of 10 μM arachidonyl trifluoromethyl ketone (ATFMK), an inhibitor of FAAH. IC50 values were determined using a four-parameter logistic equation for dose-response curves.

[1] = H4-FAAH cell membranes, 10 μM anandamide, room temperature, one hour, read-out: IC50

SMILES	IC50 [1]	IC50
CCCCCCCCOc1ccc(NC(=O)O/N=C/c2cccnc2)cc1 [Example 30, 3-Pyridinecarboxaldehyde, O-[[(4-octyloxyphenyl)amino]carbonyl]oxime]	< 10 nM	
CCCCCCCCCCOc1ccc(NC(=O)ON=C(C)C)cc1 [Example 32, 2-Propanone, O-[[(4-decyloxyphenyl)amino]carbonyl]oxime]	< 10 nM	
CCCCCCCCCCCCOc1ccc(NC(=O)O/N=C/c2ccc(F)cc2)cc1 [Example 42, 4-Fluorobenzaldehyde, O-[[(4-dodecyloxyphenyl)amino]carbonyl]oxime]	< 10 nM	
O=C(Nc1ccccc1Oc1ccccc1)O/N=C/c1cccnc1 [Example 92, 3-Pyridinecarboxaldehyde, O-[[(2-phenoxyphenyl)amino]carbonyl]oxime]	> 500 nM	
O=C(Nc1ccc(Oc2ccccc2)cc1)O/N=C/c1ccc(F)cc1 [Example 77, 4-Fluorobenzaldehyde, O-[[(4-phenoxyphenyl)amino]carbonyl]oxime]	< 10 nM	
CCc1ccc(-c2ccc(NC(=O)O/N=C/c3ccc(F)cc3)cc2)cc1 [Example 75, 4-Fluorobenzaldehyde, O-[[(4′-ethyl-[1,1′-biphenyl]-4-yl)amino]carbonyl]oxime]	< 10 nM	
CCCCCCCCC(=O)Nc1ccc(NC(=O)O/N=C/c2ccc(F)cc2F)cc1 [Example 139, 2,4-Difluorobenzaldehyde, O-[[(4-Nonanoylamino-phenyl)amino]carbonyl]oxime]	< 10 nM	
CCOc1ccc(NC(=O)O/N=C/c2ccc(F)cc2)cc1 [Example 12, 4-Fluorobenzaldehyde, O-[[(4-ethoxyphenyl)amino]carbonyl]oxime]	10 to 100 nM	
CCCCCCCCCOc1ccc(NC(=O)O/N=C/c2cccc(F)c2)cc1 [Example 52, 3-Fluorobenzaldehyde, O-[[(4-nonyloxyphenyl)amino]carbonyl]oxime]	< 10 nM	
CCCCOc1ccc(CNC(=O)Oc2ccc3ccccc3c2)cc1 [Example 116, 4-(Butoxyphenylmethyl)carbamic acid, 2-naphthalenyl ester]	10 to 100 nM	
CCCCOc1ccc(C(CC)NC(=O)Oc2cccc3ccccc23)cc1 (stereo not shown) [Example 127, [1-(4-Butoxy-phenyl)-propyl]-carbamic acid naphthalen-1-yl ester]	101 to 500 nM	
CCCCCCCCOc1ccc(NC(=O)Oc2ccccc2)cc1 [Example 98, 4-Octyloxyphenylcarbamic acid, phenyl ester]	< 10 nM	
CCCCCCCCCOc1ccc(NC(=O)O/N=C/c2cccc(C(F)(F)F)c2F)cc1 [Example 54, 2-Fluoro-3-(trifluoromethyl)benzaldehyde, O-[[(4-nonyloxyphenyl)amino]carbonyl]oxime]	< 10 nM	
CCCCOc1ccc(C(CC)NC(=O)Oc2ccccc2)cc1 (stereo not shown) [Example 134, [1-(4-Butoxy-phenyl)-propyl]-carbamic acid phenyl ester]	10 to 100 nM	
CCCCCCCOc1ccc(NC(=O)Oc2ccccc2)cc1 [Example 96, 4-Heptyloxyphenylcarbamic acid, phenyl ester]	< 10 nM	
CCCCCOc1ccc(NC(=O)O/N=C/c2cccnc2)cc1 [Example 17, 3-Pyridinecarboxaldehyde, O-[[(4-pentyloxyphenyl)amino]carbonyl]oxime]	< 10 nM	
CCCCOc1ccc(CNC(=O)Oc2ccccc2)cc1 [Example 111, 4-(Butoxyphenylmethyl)carbamic acid, phenyl ester]	< 10 nM	
CCCCOc1ccc(NC(=O)O/N=C/c2cccnc2)cc1 [Example 44, 3-Pyridinecarboxaldehyde, O-[[(4-butoxyphenyl)amino]carbonyl]oxime]	10 to 100 nM	
O=C(Nc1ccc2[nH]ccc2c1)O/N=C/c1cccnc1 [Example 141, 3-Pyridinecarboxaldehyde, O-[[(1H-indol-5-yl)amino]carbonyl]oxime]	> 500 nM	

SMILES	IC50 [1]	IC50
CCCCCCCCCCOc1ccc(NC(=O)Oc2ccccc2)cc1 [Example 101, 4-Decyloxyphenylcarbamic acid, phenyl ester]		< 10 nM
CCCCOc1ccc(NC(=O)Oc2ccccc2F)cc1 [Example 107, 4-Butoxyphenylcarbamic acid, 2-fluorophenyl ester]	101 to 500 nM	
CCCCCCCCCCCOc1ccc(NC(=O)Oc2ccccc2F)cc1 [Example 104, 4-Undecyloxyphenylcarbamic acid, 2-fluorophenyl ester]		10 to 100 nM
CCCCCCOc1ccc(NC(=O)O/N=C/c2ccc(F)cc2)cc1 [Example 24, 4-Fluorobenzaldehyde, O-[[(4-hexyloxyphenyl)amino]carbonyl]oxime]	< 10 nM	
O=C(Nc1ccc2[nH]ccc2c1)O/N=C/c1ccccc1 [Example 143, Benzaldehyde, O-[[(1H-indol-5-yl)amino]carbonyl]oxime]	> 500 nM	
CCCCOc1ccc(CNC(=O)Oc2ccccc2F)cc1 [Example 112, 4-(Butoxyphenylmethyl)carbamic acid, 2-fluorophenyl ester]	< 10 nM	
O=C(Nc1ccc(OCc2ccccc2)cc1)O/N=C/c1cccnc1 [Example 78, 3-Pyridinecarboxaldehyde, O-[[[4-(phenylmethoxy)phenyl]amino]carbonyl]oxime]	< 10 nM	
CCCCCCOc1ccc(NC(=O)Oc2ccccc2)cc1 [Example 93, 4-Hexyloxyphenylcarbamic acid, phenyl ester]	10 to 100 nM	
O=C(Nc1c[nH]c2ccccc12)O/N=C/c1ccccc1 [Example 145, Benzaldehyde, O-[[(1H-indol-3-yl)amino]carbonyl]oxime]	> 500 nM	
CCCCOc1ccc(CNC(=O)Oc2ccc(F)cc2F)cc1 [Example 120, 4-(Butoxyphenylmethyl)carbamic acid, 2,4-difluorophenyl ester]	< 10 nM	
O=C(Nc1ccc(OCCCc2ccccc2)cc1)O/N=C/c1cccnc1 [Example 80, 3-Pyridinecarboxaldehyde, O-[[[4-(3-phenylpropoxy)phenyl]amino]carbonyl]oxime]	< 10 nM	
CCCOc1ccc(NC(=O)O/N=C/c2ccccc2)cc1 [Example 10, Benzaldehyde, O-[[(4-propoxyphenyl)amino]carbonyl]oxime]	< 10 nM	
CCCCOc1cccc(NC(=O)O/N=C/c2ccccc2)c1 [Example 67, Benzaldehyde, O-[[(3-butoxyphenyl)amino]carbonyl]oxime]	10 to 100 nM	
CCCCOc1ccc(NC(=O)O/N=C/c2ccccc2)cc1OC [Example 19, Benzaldehyde, O-[[(4-butoxy-3-methoxyphenyl)amino]carbonyl]oxime]	101 to 500 nM	
CCCCCCCOc1ccc(NC(=O)ON=C(C)C)cc1 [Example 26, 2-Propanone, O-[[(4-heptyloxyphenyl)amino]carbonyl]oxime]	< 10 nM	
CCCCOc1ccc(NC(=O)O/N=C/c2cccnc2)cc1OC [Example 21, 3-Pyridinecarboxaldehyde, O-[[(4-butoxy-3-methoxyphenyl)amino]carbonyl]oxime]	> 500 nM	
CCCCCCCCCCOc1ccc(NC(=O)O/N=C/c2ccccc2)cc1 [Example 33, Benzaldehyde, O-[[(4-decyloxyphenyl)amino]carbonyl]oxime]	< 10 nM	
CCCCOc1ccc(C(CC)NC(=O)Oc2ccccc2F)cc1 (stereo not shown) [Example 135, [1-(4-Butoxy-phenyl)-propyl]-carbamic acid 2-fluoro-phenyl ester]	< 10 nM	
